“Also recorded” adds a separate entry of the source. Ends that are not written are not given here.

Chain of PXL2 LRR (Arabidopsis thaliana) (Q9M0G7 24-633): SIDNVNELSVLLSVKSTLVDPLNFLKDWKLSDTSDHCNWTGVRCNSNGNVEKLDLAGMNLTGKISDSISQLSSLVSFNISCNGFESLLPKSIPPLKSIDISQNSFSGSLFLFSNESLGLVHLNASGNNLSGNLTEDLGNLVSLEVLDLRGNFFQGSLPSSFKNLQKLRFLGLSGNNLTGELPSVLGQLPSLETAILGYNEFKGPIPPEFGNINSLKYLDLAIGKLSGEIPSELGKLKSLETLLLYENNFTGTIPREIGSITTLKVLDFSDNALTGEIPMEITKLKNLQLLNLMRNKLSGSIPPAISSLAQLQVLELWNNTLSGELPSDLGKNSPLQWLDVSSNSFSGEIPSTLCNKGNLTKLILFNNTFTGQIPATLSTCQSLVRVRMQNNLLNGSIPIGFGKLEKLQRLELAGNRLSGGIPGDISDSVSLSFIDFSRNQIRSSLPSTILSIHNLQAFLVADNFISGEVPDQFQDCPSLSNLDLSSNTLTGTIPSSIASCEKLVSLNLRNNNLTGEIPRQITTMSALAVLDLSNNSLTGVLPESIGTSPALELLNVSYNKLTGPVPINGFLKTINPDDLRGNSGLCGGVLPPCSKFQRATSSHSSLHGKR

The subject of one assay is PXL1 (PXL1^LRR). In words: Gel filtration-MALDI-TOF identification of peptides copurified with PXL1 LRR. The settings on record: PXL1^LRR incubated with synthesized peptide mixture (0.1 mg each), 10 mM Bis-Tris pH 6.0, 100 mM NaCl, on ice 1 h, Superdex 200. Format: binding, Arabidopsis. How it is done:
As part of an effort to identify cognate receptors for peptidyl ligands in Arabidopsis, a pool of synthetic CLE small peptides (Supplementary Table 1) was mixed with purified individual extracellular LRR domains of receptor-like kinases (RLKs). The putative RLK-ligand complexes were purified by gel-filtration, and the peptides were detected by mass spectrometry, as reported previously.
Purified PXL1^LRR protein (with buffer containing 10 mM Bis-Tris pH 6.0, 100 mM NaCl) was incubated with synthesized peptide mixture (0.1 mg for each; Supplementary Table 1) on ice for 1 h. Then, each mixture was subjected to gel filtration (Superdex 200, GE Healthcare) for analysis. The relevant peak fractions of PXL1^LRR were collected and 2 μl was used for analyzed by MALDI-TOF–mass spectrometry analysis.
For the molecule “CLE11: CLE peptide (RVVPSGPNPLHH; ends and bridges not checked; UniProt Q3ECU1 88-99, looked up)”, the “CLE peptide copurified with PXL1” value was “CLE19 was the only CLE peptide that co-purified with PXL1”.

Regarding “CLE43: CLE peptide (RRIPSSPDRLHN; ends and bridges not checked; UniProt Q6IWB1 85-96, looked up)”, the “CLE peptide copurified with PXL1” value is given as “CLE19 was the only CLE peptide that co-purified with PXL1”.

For “CLE12: CLE peptide (RRVPSGPNPLHH; ends and bridges not checked; UniProt Q29PU4 107-118, looked up)”, the “CLE peptide copurified with PXL1” value is given as “CLE19 was the only CLE peptide that co-purified with PXL1”.

In the case of “CLE46: CLE peptide (HKHPSGPNPTGN; ends and bridges not checked; UniProt Q8LDN4 58-69, looked up)”, the “CLE peptide copurified with PXL1” value is reported as “CLE19 was the only CLE peptide that co-purified with PXL1”.

With “CLE14: CLE peptide (RLVPKGPNPLHN; ends and bridges not checked; UniProt Q3ECJ5 68-79, looked up)”, the “CLE peptide copurified with PXL1” value is recorded as “CLE19 was the only CLE peptide that co-purified with PXL1”.

“CLE40: CLE peptide (RQVPTGSDPLHH; ends and bridges not checked; UniProt Q9LXU0 62-73, looked up)”: the “CLE peptide copurified with PXL1” value was “CLE19 was the only CLE peptide that co-purified with PXL1”.

As to “CLE3: synthetic CLE small peptide of the pool (RLSPGGPDPRHH; ends and bridges not checked; UniProt Q3EDH8 72-83, looked up)”, the “CLE peptide copurified with PXL1” value was “CLE19 was the only CLE peptide that co-purified with PXL1; also recorded: but not CLV3, CLE3, CLE6, and others”.

In the case of “CLE6: synthetic CLE small peptide of the pool (RVSPGGPDPQHH; ends and bridges not checked; UniProt Q8S8N3 70-81, looked up)”, the “CLE peptide copurified with PXL1” value was “CLE19 was the only CLE peptide that co-purified with PXL1; also recorded: but not CLV3, CLE3, CLE6, and others”.

As to “CLE18: CLE peptide (RQIPTGPDPLHN; ends and bridges not checked; UniProt Q3ECH9 37-48, looked up)”, the “CLE peptide copurified with PXL1” value is on record as “CLE19 was the only CLE peptide that co-purified with PXL1”.

As for “CLE45: CLE peptide (RRVRRGSDPIHN; ends and bridges not checked; UniProt Q6IWA9 107-118, looked up)”, the “CLE peptide copurified with PXL1” value is given as “CLE19 was the only CLE peptide that co-purified with PXL1”.

In the case of “CLE25: CLE peptide (RKVPNGPDPIHN; ends and bridges not checked; UniProt Q8LFL4 58-69, looked up)”, the “CLE peptide copurified with PXL1” value was “CLE19 was the only CLE peptide that co-purified with PXL1”.

For “CLE8: CLE peptide (RRVPTGPNPLHH; ends and bridges not checked; UniProt Q2V4E2 61-72, looked up)”, the “CLE peptide copurified with PXL1” value is “CLE19 was the only CLE peptide that co-purified with PXL1”.

Turning to “CLE9: CLE peptide (RLVPSGPNPLHN; ends and bridges not checked; UniProt Q9FZE4 109-120, looked up)”, the “CLE peptide copurified with PXL1” value is “CLE19 was the only CLE peptide that co-purified with PXL1”.

For “CLE20: CLE peptide (RKVKTGSNPLHN; ends and bridges not checked; UniProt Q3EDI6 70-81, looked up)”, the “CLE peptide copurified with PXL1” value is reported as “CLE19 was the only CLE peptide that co-purified with PXL1”.

In the case of CLAVATA3 [CLV3], the “CLE peptide copurified with PXL1” value is “interaction with PXL1 was not detected; also recorded: CLE19 was the only CLE peptide that co-purified with PXL1; also recorded: but not CLV3, CLE3, CLE6, and others”.

With “CLE16: CLE peptide (RLVHTGPNPLHN; ends and bridges not checked; UniProt Q8S8M2 92-103, looked up)”, the “CLE peptide copurified with PXL1” value was “CLE19 was the only CLE peptide that co-purified with PXL1”.

For another assay, the system named is PXL1 (PXL1-FLAG). In words: In vivo phosphorylation assay, Phos-tag SDS-PAGE and western blot. It counts as cell-based, Arabidopsis. The following applies: 10-day-old pPXL1::PXL1-FLAG seedlings, 20 µM peptide, 1.5 h; Phos-tag gel, anti-FLAG; λpp control. The protocol: Ten-day-old […] transgenic seedlings were tested to observe the phosphorylation status of PXL1. The seedlings were cultured in 1/2 MS liquid medium treated with mock or 20 μM CLE19, CLE19[…] or CLV3 peptide for 1.5 h and then ground to a fine powder in liquid N2 for protein extraction performed as described above. The extracted protein was analyzed by Phos-tag (Wako) gel and immunoblotting using anti-FLAG (GNI) antibody. The anti-HSP70 (Abmart) antibody was used to determine the amount of input protein. Anti-FLAG beads (Abmart) were used for immunoprecipitation to purify the PXL1-FLAG protein. Anti-pS/T (ECM) was used to detect the phosphorylation status of the PXL1 protein after CLE19 treatment. The seedling protein extracted was also treated with λpp (NEB) at 30 °C for 0.5 h and then analyzed by anti-FLAG and anti-HSP antibodies.
As for “CLE19G6T: functionally inactive CLE19G6T (RVIPTTPNPLHN; ends and bridges not checked; UniProt Q8W261 62-73, looked up, variant G6T)”, the “PXL1 phosphorylation (Phos-tag migration)” value was “Neither CLE19G6T nor CLV3 induced the phosphorylation-related migration of PXL1; also recorded: PXL1 phosphorylation was not induced; also recorded: lost the ability of inducing PXL1 phosphorylation”.

Consider CLAVATA3 [CLV3], for which the “PXL1 phosphorylation (Phos-tag migration)” value was “Neither CLE19G6T nor CLV3 induced the phosphorylation-related migration of PXL1; also recorded: PXL1 phosphorylation was not induced”.

For another assay, the target named is PXL1^∆KD–SERK1^∆KD interaction. The assay is described as follows: Co-IP PXL1^∆KD-SERK1^∆KD in Nicotiana benthamiana. It counts as cell-based, Arabidopsis. The settings on record: N. benthamiana leaves, with or without peptide 3–4 h; GFP-Trap, anti-Myc. An excerpt: The 825 bp SERK1 (SERK1^∆KD), 834 bp SERK2 (SERK2^∆KD) and the 927 bp SERK3/BAK1 (BAK1^∆KD) coding regions were amplified with the primers listed in Supplementary Table 3. The PCR products of SERK1^∆KD, SERK2^∆KD and BAK1^∆KD were inserted into the pCAMBIA1306-GFP vector at the KpnI and SalI sites to generate the pCAMBIA1306-SERK1^∆KD/2/BAK1^∆KD-GFP constructs. pCAMBIA1306-PXL^∆KD -MYC, pCAMBIA1306-SERK1^∆KD GFP and pCAMBIA1306-BAK1^∆KD-GFP were transferred into the Agrobacterium tumefaciens GV3101 strain.
The cultures were grown overnight in 2 x YT medium and resuspended to optical density at 600 nm (OD600) = 2.0 in an injection buffer (150 μM acetosyringone, 10 mM MgCl2 and 10 mM MES). […]
Total proteins were extracted from the N. benthamiana leaves with the extraction buffer (50 mM Tris-HCl (pH 7.5), 150 mM NaCl, 5 mM EDTA, 5% glycerol, 1% Triton X-100 with protease inhibitor, phosphatase inhibitor, and PMSF) and then incubated with GFP-Trap beads (Chromo Tek) at 4 °C for 4 h, followed by two washes (50 mM Tris-HCl (pH 7.5), 150 mM NaCl, 5 mM EDTA, 5% glycerol, and 0.01% Triton X-100). Proteins were separated on SDS-PAGE gels and detected by anti-Myc (GNI) antibody via western blots.
For CLAVATA3 [CLV3], the “PXL1^∆KD-SERK1^∆KD interaction (co-IP)” value is “no such interaction was detected in the absence of CLE19 or the presence of CLV3”.

The next assay has as its target PXL1 LRR (Arabidopsis thaliana) (UniProt Q9FRS6). In words: ITC. The following applies: cited from earlier work.
For CLE41 (from UniProt Q84W98), the dissociation constant (Kd) (commonly a measure of binding affinity in units of concentration) is 2100 nM.

The next assay concerns the target PXL2 LRR (Arabidopsis thaliana) (UniProt Q9M0G7). The assay is described as follows: ITC. The settings on record: cited from earlier work.
As for CLE41 (from UniProt Q84W98), the dissociation constant Kd was 9900 nM.

A further assay deals with PXY LRR (Arabidopsis thaliana) (UniProt Q9FII5). The assay is described as follows: ITC. The following applies: cited from earlier work.
Chain of PXY LRR (Arabidopsis thaliana) (Q9FII5 30-652): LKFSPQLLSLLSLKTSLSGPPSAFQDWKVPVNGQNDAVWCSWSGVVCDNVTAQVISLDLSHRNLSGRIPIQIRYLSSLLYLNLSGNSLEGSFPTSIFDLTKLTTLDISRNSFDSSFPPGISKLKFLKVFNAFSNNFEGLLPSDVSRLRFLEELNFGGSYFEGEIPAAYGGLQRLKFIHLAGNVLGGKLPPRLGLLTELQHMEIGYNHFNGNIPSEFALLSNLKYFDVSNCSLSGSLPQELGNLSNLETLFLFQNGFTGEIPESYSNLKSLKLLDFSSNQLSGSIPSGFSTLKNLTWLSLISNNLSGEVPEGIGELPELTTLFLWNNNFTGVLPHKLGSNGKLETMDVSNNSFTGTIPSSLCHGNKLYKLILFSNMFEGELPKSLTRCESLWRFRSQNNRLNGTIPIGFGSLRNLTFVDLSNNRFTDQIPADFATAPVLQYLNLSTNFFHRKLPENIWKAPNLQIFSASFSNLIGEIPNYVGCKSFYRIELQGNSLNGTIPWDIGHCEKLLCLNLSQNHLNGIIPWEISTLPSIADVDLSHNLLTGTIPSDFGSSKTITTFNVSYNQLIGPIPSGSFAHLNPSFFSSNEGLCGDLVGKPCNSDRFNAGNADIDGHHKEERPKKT
In the case of CLE41 (from UniProt Q84W98), the dissociation constant Kd was 33 nM.

The target of the next assay is PXL2 (protein used for ITC) (Arabidopsis, UniProt Q9M0G7 24-1013). The assay is described as follows: ITC; CLE19 with PXL2 and with PXY; conditions not told for these proteins. The settings on record: both partners purified.
Chain of PXL2 (protein used for ITC) (Q9M0G7 24-1013): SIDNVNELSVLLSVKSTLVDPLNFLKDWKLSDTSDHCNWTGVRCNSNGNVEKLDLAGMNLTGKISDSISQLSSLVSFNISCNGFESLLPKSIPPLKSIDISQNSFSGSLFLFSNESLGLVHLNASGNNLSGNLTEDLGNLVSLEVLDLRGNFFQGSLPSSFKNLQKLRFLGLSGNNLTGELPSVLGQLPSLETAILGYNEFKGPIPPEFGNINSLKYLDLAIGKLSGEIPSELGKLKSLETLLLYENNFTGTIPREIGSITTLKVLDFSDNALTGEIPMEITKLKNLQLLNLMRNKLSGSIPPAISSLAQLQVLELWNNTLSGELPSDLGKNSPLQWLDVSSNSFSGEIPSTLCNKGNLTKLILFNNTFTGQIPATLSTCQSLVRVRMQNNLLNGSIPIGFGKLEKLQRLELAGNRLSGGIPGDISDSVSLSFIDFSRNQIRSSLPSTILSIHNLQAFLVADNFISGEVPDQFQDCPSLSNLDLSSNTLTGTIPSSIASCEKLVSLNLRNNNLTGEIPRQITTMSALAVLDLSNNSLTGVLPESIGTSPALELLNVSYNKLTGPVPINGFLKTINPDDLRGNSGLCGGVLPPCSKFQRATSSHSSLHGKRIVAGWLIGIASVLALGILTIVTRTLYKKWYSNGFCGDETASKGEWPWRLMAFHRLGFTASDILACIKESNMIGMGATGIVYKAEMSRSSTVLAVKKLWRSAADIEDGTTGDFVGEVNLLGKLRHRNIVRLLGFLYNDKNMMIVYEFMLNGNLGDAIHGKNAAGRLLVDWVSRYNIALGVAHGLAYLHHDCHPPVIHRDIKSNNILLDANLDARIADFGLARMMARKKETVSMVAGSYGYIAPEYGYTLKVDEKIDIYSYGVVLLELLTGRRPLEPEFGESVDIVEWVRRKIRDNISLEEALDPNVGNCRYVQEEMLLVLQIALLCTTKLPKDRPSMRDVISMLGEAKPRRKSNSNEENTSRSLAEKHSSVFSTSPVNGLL
In turn, RVIPTGPNPLHN (ends and bridges not checked) had a dissociation constant Kd of 714 nM.

The next assay addresses T1, PXL1^LRR (extracellular LRR domain of PXY-LIKE1, residues 1-639, 6xHis) (Arabidopsis, UniProt Q9FRS6 24-639).
T1 construct: signal peptide in the construct; PXL1 (PXY-LIKE1), Arabidopsis, AT1G08590, LRR domains, residues 1-639; also called PXL1 ectodomain; PXL1^LRR-6×His; source: High Five cells, purified (Ni-NTA, size-exclusion chromatography)
T1 sequence (looked up): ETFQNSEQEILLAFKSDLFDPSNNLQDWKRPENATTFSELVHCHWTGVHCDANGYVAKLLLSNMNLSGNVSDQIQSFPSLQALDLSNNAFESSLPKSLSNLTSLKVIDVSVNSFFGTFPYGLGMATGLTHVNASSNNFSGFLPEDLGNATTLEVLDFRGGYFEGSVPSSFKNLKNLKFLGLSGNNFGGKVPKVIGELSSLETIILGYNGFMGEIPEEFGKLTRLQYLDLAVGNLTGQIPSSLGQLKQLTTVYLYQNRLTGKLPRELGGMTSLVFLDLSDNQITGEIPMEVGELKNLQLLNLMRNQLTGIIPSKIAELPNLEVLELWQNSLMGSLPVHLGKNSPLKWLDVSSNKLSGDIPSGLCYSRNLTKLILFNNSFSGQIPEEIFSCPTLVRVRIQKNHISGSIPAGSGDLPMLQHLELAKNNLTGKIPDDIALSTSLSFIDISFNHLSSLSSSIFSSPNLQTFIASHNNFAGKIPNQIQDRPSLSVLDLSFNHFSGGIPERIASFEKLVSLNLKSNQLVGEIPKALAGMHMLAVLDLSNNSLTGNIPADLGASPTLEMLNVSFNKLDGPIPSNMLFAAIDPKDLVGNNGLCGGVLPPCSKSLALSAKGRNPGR
The assay is described as follows: ITC; ITC200; 1 mM CLE19 titrated into 0.1 mM PXL1^LRR in the cell, 20 injections; 10 mM Bis-Tris pH 6.0, 100 mM NaCl; 25 °C. The settings on record: both partners purified.
RVIPTGPNPLHN had a dissociation constant Kd of around 346 nM.
